Measurements: publication PMC10993414, “Water Quality Monitoring with the Multiplexed Assay MitoOxTox for Mitochondrial Toxicity, Oxidative Stress Response, and Cytotoxicity in AREc32 Cells” (Environmental Science & Technology, 2024)
Where two headings read alike, the source gives them in different places.

Columns and labels:
[1] = test system: Nrf2-mediated oxidative stress response pathway (ARE) in AREc32 cells; experiment: cells; conditions: Arec32, 24 h, read-out: Oxidative stress response ECIR1.5 (M)
[2] = test system: mitochondrial membrane potential (MMP) in AREc32 cells; experiment: Disruption of mitochondrial membrane potential (m-MPI red/green ratio), MitoOxTox; conditions: for SRcytotoxicity: specificity ratio of MMP effect: IC10 (ImageXpress)/EC10 (eq 4); for EC10: MMP, AREc32, 24 h
AREc32 cells [3] = experiment: Cytotoxicity with ImageXpress high-content imaging, MitoOxTox
[4] = cited from earlier work
AREc32 cells [5] = experiment: Cytotoxicity (cell confluency) with IncuCyte S3 live cell imaging, MitoOxTox
[6] = test system: mitochondrial membrane potential (MMP) in AREc32 cells; conditions: for SRcytotoxicity: human
AREc32 cells [7] = test system: AREc32 cells
AREc32 cells [8] = conditions: for Cytotoxicity Incucyte IC10: human
[9] = test system: Nrf2-mediated oxidative stress response pathway (ARE) in AREc32 cells
[10] = 10% reduction of MMP, AREc32, 24 h exposure
[11] = logarithm of EC10, AREc32, 24 h exposure
[12] = 10% reduction in cell viability, AREc32, 24 h exposure
[13] = logarithm of IC10, AREc32, 24 h exposure, Corning plates
[14] = effect concentration leading to induction ratio 1.5, AREc32, 24 h exposure

Row | Compound | EC (induction ratio 1.5) [1] [M] | MMP inhibition EC10 [2, 10] [µM] | MMP inhibition log(EC10 (M)) [2, 11] [M] | Cytotoxicity ImageExpress IC10 (AREc32 cells [3]; [12]) [µM] | Cytotoxicity ImageExpress log(IC10 (M)) (AREc32 cells [3]; [13]) | log Kow [L/L] ([4]; experimental, ref PhysPropNCCT) | Cytotoxicity Incucyte IC10 (AREc32 cells [5]; [12]) [µM] | other results
1 | N#CC(C#N)=NNc1cccc(Cl)c1 [Carbonyl cyanide 3-chlorophenyl-hydrazone] | > 0.000355 | 0.247 | -6.61 | 2.31 | -5.64 M | 3.38 | 1.28 | SRcytotoxicity [2]: 9.4
2 | COc1cc2c(cc1OC)[C@@H]1C(=O)c3ccc4c(c3O[C@@H]1CO2)C=CC(C)(C)O4 [Deguelin] | > 4.08e-05 | 0.013 | -7.89 | 28.8 | -4.54 M |  | 17.7 | SRcytotoxicity [6]: 2215
3 | Oc1c(Cl)cc(Cl)c(Cl)c1Cc1c(O)c(Cl)cc(Cl)c1Cl [Hexachlorophene] | > 9.31e-05 |  |  |  |  |  |  | MMP inhibition EC10 [2]: 0.276 µM; MMP inhibition log(EC10 (M)) [2]: -6.56 M; Cytotoxicity ImageExpress IC10 (AREc32 cells [7]; human): 10.7 µM; Cytotoxicity ImageExpress log(IC10 (M)) (AREc32 cells [7]; human): -4.97 M; Cytotoxicity Incucyte IC10 (AREc32 cells [8]): 5.46 µM; SRcytotoxicity [6]: 38.6
4 | N#CC(C#N)=NNc1ccc(OC(F)(F)F)cc1 [Carbonyl cyanide 4-(trifluoromethoxy)phenylhydrazone] | > 6.32e-05 | 0.0768 | -7.11 | 1.75 | -5.76 M | 3.68 | 0.824 | SRcytotoxicity [2]: 22.8
5 | CCCCCC[C@H]1C(=O)O[C@H](C)[C@H](NC(=O)c2cccc(NC=O)c2O)C(=O)O[C@@H](C)[C@@H]1OC(=O)CC(C)C [Antimycin A] | > 0.000129 | 0.000755 | -9.12 | 43.4 | -4.36 M |  | 35.9 | 
6 | COc1ccc2cc3[n+](cc2c1OC)CCc1cc2c(cc1-3)OCO2 [Berberine] | > 0.000135 | 0.0135 | -7.87 | 72.4 | -4.14 M |  | 63.5 | SRcytotoxicity [2]: 5365
7 | CO/N=C(/C1=NOCCO1)c1ccccc1Oc1ncnc(Oc2ccccc2Cl)c1F [Fluoxastrobin] | > 0.000153 | 6.05 | -5.22 | > 153 | no cytotoxicity |  | 52.1 | 
8 | Cc1cc(O)ccc1Cl [4-Chloro-3-methylphenol] |  |  |  |  |  |  |  | MMP inhibition EC10 [2]: 13.5 µM; MMP inhibition log(EC10 (M)) [2]: -4.87 M; Cytotoxicity ImageExpress IC10 (AREc32 cells [3]): 161 µM; Cytotoxicity ImageExpress log(IC10 (M)) (AREc32 cells [3]): -3.79 M; Cytotoxicity Incucyte IC10 (AREc32 cells [5]): 111 µM
9 | Cc1nc(C(F)(F)F)c(C(=O)Nc2c(Br)cc(OC(F)(F)F)cc2Br)s1 [Thifluzamide] | > 3.16e-05 | 2.92 | -5.53 | 23.4 | -4.63 M |  | 11.3 | SRcytotoxicity [2]: 8.0
10 | CO/C=C(/C(=O)OC)c1ccccc1Oc1cc(Oc2ccccc2C#N)ncn1 [Azoxystrobin] |  | 15.9 | -4.80 | > 105 | no cytotoxicity | 2.50 | > 105 | Cytotoxicity Incucyte log(IC10 (M)) (AREc32 cells [5]; [13]): no cytotoxicity; Oxidative stress response ECIR1.5 [9, 14]: > 105 µM
11 | C=C(C)[C@H]1Cc2c(ccc3c2O[C@@H]2COc4cc(OC)c(OC)cc4[C@@H]2C3=O)O1 [Rotenone] | > 6.57e-07 | 0.00531 | -8.27 |  |  | 4.1 |  | Cytotoxicity ImageExpress IC10 (AREc32 cells [7]; human): 0.242 µM; Cytotoxicity ImageExpress log(IC10 (M)) (AREc32 cells [7]; human): -6.62 M; Cytotoxicity Incucyte IC10 (AREc32 cells [8]): 0.212 µM; SRcytotoxicity [6]: 46
12 | CC(C)(C)c1ccc(CSc2cnn(C(C)(C)C)c(=O)c2Cl)cc1 [Pyridaben] | > 0.000161 | 0.00273 | -8.56 |  |  | 6.37 |  | Cytotoxicity ImageExpress log(IC10 (M)) (AREc32 cells [7]): no cytotoxicity; Cytotoxicity ImageExpress IC10 (AREc32 cells [7]; human, 24 h): > 161 µM; Cytotoxicity Incucyte IC10 (AREc32 cells [8]; 24 h): 51.4 µM
13 | CCCCOCCO [2-Butoxyethanol] |  |  |  |  |  |  |  | EC10 [2]: 10700 µM; log Kow [L/L] ([4]; ref Vaes et al. 1997b): 0.83 L/L; MMP inhibition log(EC10 (M)) [6, 11]: -1.97 M
14 | Cc1ccc(-c2c(Cl)nc(C#N)n2S(=O)(=O)N(C)C)cc1 [Cyazofamid] | > 5.41e-05 | 36.7 | -4.44 |  |  |  |  | Cytotoxicity ImageExpress log(IC10 (M)) (AREc32 cells [7]): no cytotoxicity; Cytotoxicity ImageExpress IC10 (AREc32 cells [7]; human, 24 h): > 54.1 µM; Cytotoxicity Incucyte log(IC10 (M)) (AREc32 cells [8]): no cytotoxicity; Cytotoxicity Incucyte IC10 (AREc32 cells [8]; 24 h): > 54.1 µM
15 | CCc1nn(C)c(C(=O)NCc2ccc(C(C)(C)C)cc2)c1Cl [Tebufenpyrad] | > 0.000214 | 0.00573 | -8.24 | 192 | -3.72 M | 4.61 | 157 | SRcytotoxicity [6]: 33496
16 | Tributyltin chloride |  |  |  |  |  |  |  | MMP inhibition EC10 [2]: 0.0145 µM; MMP inhibition log(EC10 (M)) [2]: -7.84 M; Oxidative stress response ECIR1.5 [9]: > 1.23 µM
17 | CCOCCc1ccc(OCCN=c2[nH]cnc(CC)c2Cl)c(C)c1C [Pyrimidifen] | > 0.000136 | 0.00271 | -8.57 | 56.1 | -4.25 M |  | 55.3 | SRcytotoxicity [2]: 20693
18 | CC1(C)CNC(=NN=C(/C=C/c2ccc(C(F)(F)F)cc2)/C=C/c2ccc(C(F)(F)F)cc2)NC1 [Hydramethylnon] | > 4.04e-05 | 4.29 | -5.37 | 1.11 | -5.96 M |  | 0.878 | 
19 | CSC1=N[C@@](C)(c2ccccc2)C(=O)N1Nc1ccccc1 [Fenamidone] | > 0.000239 | 13.1 | -4.88 |  |  |  |  | Cytotoxicity ImageExpress IC10 (AREc32 cells [7]; human, 24 h): 125 µM; Cytotoxicity ImageExpress log(IC10 (M)) (AREc32 cells [7]; human, 24 h): -3.90 M; Cytotoxicity Incucyte IC10 (AREc32 cells [8]; 24 h): 118 µM; SRcytotoxicity ([6]; 24 h): 9.5
20 | CC(C)Oc1cccc(NC(=O)c2ccccc2C(F)(F)F)c1 [Flutolanil] | > 0.000226 | 25.2 | -4.60 |  |  | 3.7 |  | Cytotoxicity ImageExpress IC10 (AREc32 cells [7]; human): 138 µM; Cytotoxicity ImageExpress log(IC10 (M)) (AREc32 cells [7]; human): -3.86 M; Cytotoxicity Incucyte IC10 (AREc32 cells [8]): 106 µM; SRcytotoxicity [6]: 5.5
21 | Oligomycin A |  | 0.000235 | -9.63 |  |  |  |  | EC10 [2]: 0.00024 µM; Oxidative stress response ECIR1.5 [9, 14]: > 12.7 µM
22 | Cc1ccccc1C(=O)Nc1cccc(OC(C)C)c1 [Mepronil] | > 0.000153 | 31.2 | -4.51 |  |  | 3.66 |  | Cytotoxicity ImageExpress IC10 (AREc32 cells [7]; human, 24 h): 72.9 µM; Cytotoxicity ImageExpress log(IC10 (M)) (AREc32 cells [7]; human, 24 h): -4.14 M; Cytotoxicity Incucyte IC10 (AREc32 cells [8]; 24 h): 58.7 µM
23 | CON=C(C(=O)OC)c1ccccc1CON=C(C)c1cccc(C(F)(F)F)c1 [Trifloxystrobin] | > 0.000123 | 4.11 | -5.39 |  |  | 4.50 |  | Cytotoxicity ImageExpress log(IC10 (M)) (AREc32 cells [7]): no cytotoxicity; Cytotoxicity ImageExpress IC10 (AREc32 cells [7]; human, 24 h): > 123 µM; Cytotoxicity Incucyte log(IC10 (M)) (AREc32 cells [8]): no cytotoxicity; Cytotoxicity Incucyte IC10 (AREc32 cells [8]; 24 h): > 123 µM
24 | Cc1nn(C)c(Oc2ccccc2)c1C=NOCc1ccc(C(=O)OC(C)(C)C)cc1 [Fenpyroximate] |  | 0.00069 | -9.16 |  |  |  |  | 
25 | COC(=O)N(OC)c1ccccc1COc1ccn(-c2ccc(Cl)cc2)n1 [Pyraclostrobin] | > 0.000103 | 0.208 | -6.68 | 61.4 | -4.21 M | 3.99 | 82.4 | SRcytotoxicity [6]: 295.0
26 | CCCCCc1ccc(O)cc1 [4-Pentylphenol] | > 0.000385 | 6.16 | -5.21 | 87.6 | -4.06 M |  | 57.1 | SRcytotoxicity [2]: 14.2; log Kow [L/L] ([4]; ref Vaes et al. 1997b): 4.24 L/L
